Measured values: paper PMC3602246 (BMC Pharmacology & Toxicology, 2013)
“Also recorded” adds a separate entry of the source. Where two headings read alike, the source gives them in different places.

How the values were obtained:
KOR = settings: cited from earlier work; for Ki: read-out: Ki, affinity binding to the KOR
DOR = settings: cited from earlier work; for Ki: read-out: Ki, affinity binding to the DOR
MOR = settings: cited from earlier work; for Ki: read-out: Ki, affinity binding to the MOR
[1] = target: T1, human mu opioid receptor (MOR1) (Homo sapiens, UniProt P35372); assay type: cell-based; settings: HEK-MOR; ligand 10 μM, 1 hr; DAMGO 10 μM
T1 construct: FLAG; expressed in transfected cells
T1 sequence (P35372 whole entry): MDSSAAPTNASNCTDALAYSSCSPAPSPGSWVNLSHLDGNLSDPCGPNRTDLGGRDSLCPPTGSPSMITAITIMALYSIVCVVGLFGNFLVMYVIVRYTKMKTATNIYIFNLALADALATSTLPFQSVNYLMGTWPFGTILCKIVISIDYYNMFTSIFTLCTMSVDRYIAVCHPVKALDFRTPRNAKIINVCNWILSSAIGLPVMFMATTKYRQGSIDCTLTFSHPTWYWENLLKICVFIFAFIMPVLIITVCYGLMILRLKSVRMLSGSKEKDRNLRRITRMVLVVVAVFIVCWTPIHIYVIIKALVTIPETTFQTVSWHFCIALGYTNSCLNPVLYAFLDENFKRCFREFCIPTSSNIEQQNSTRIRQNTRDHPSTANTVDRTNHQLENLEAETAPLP

[2] = target: T2, human kappa opioid receptor (Homo sapiens, UniProt P41145); assay type: cell-based
T2 construct: FLAG; expressed in transfected cells
T2 sequence (P41145 whole entry): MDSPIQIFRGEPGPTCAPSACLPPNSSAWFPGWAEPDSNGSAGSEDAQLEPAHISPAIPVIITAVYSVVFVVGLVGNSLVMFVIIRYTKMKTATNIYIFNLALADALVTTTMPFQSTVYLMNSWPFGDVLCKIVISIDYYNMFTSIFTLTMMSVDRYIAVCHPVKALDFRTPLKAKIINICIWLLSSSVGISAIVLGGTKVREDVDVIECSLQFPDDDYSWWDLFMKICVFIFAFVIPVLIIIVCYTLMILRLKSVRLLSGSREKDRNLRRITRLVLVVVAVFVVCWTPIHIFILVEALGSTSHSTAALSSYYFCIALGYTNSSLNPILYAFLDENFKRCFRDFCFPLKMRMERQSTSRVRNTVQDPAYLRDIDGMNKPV

[3] = target: T2, human kappa opioid receptor; assay type: cell-based; remark: listed apart in the source
[4] = target: T2, human kappa opioid receptor; assay type: cell-based; settings: read-out: IC50, single phase inhibition of BRL-52537 DMR
[5] = target: T1, human mu opioid receptor (MOR1); assay type: cell-based
[6] = read-out: EC50, first phase of biphasic DMR dose response
[7] = read-out: EC50, second phase of biphasic DMR dose response

| Molecule | Ki (KOR) [nM] | Ki (DOR) [nM] | Ki (MOR) [nM] | other results |
| --- | --- | --- | --- | --- |
| (Met5)-Enkephalin | 2.9 | 2 | 3 | – |
| Oc1ccc2c3c1O[C@H]1c4[nH]c5c(c4C[C@@]4(O)[C@@H](C2)N(CC2CC2)CC[C@]314)C[C@@]1(O)[C@H]2Cc3ccc(O)c4c3[C@@]1(CCN2CC1CC1)[C@H]5O4 [Nor-Binaltorphimine] | – | – | – | blockage of the DAMGO response [1]: partial blockage; DMR under all eight assay conditions [2]: absence of any DMR; also recorded: did not trigger any DMR response under any conditions |
| C=CC[N+]1(C)CC[C@]23c4c5ccc(O)c4O[C@H]2C(=O)CC[C@@]3(O)[C@H]1C5 (stereo partly drawn) [Naloxone methiodide] | 1010 | 204 | 28.9 | blockage of the DAMGO response [1]: partial blockage |
| Nociceptin | > 1000 | > 1000 | 270 | – |
| CN(C(=O)Cc1ccc(Cl)c(Cl)c1)[C@H](CN1CCCC1)c1cccc(N=C=S)c1 [DIPPA] | – | – | – | IC50 (KOR; read-out: IC50, affinity binding to the KOR): 2.21 nM; IC50 (DOR; read-out: IC50, affinity binding to the DOR): > 1000 nM; DMR agonist activity classification, KOR [3]: Full agonist; saturable DMR amplitude, first phase of biphasic dose response [3]: 138±8 pm; saturable DMR amplitude, second phase of biphasic dose response [3]: 205±9 pm; EC50 [3, 6]: 13.4 ± 1.5 nM; EC50 [3, 7]: 240 ± 11.2 nM; ligand DMR in PTX-pretreated cells [2]: detectable P-DMR; IC50 [4]: 455 ± 32.3 nM; IC50 (MOR; read-out: IC50, affinity binding to the MOR): 1800 nM |
| NC(=O)[C@H](Cc1ccccc1)NC(=O)[C@H](Cc1ccccc1)NC(=O)[C@@H]1CCCN1C(=O)[C@@H](N)Cc1ccc(O)cc1 [Endomorphin-2] | – | > 500 | 0.43 | – |
| Dynorphin B | – | 12.8 | – | – |
| COC(=O)N1CCN(C(=O)Cc2ccc(Cl)c(Cl)c2)C(CN2CCCC2)C1 (stereo not drawn) [GR 89696] | 41.7 | – | – | DMR agonist activity classification, KOR [3]: Full agonist; ligand DMR in PTX-pretreated cells [2]: detectable P-DMR |
| C=CCN1CC[C@]23CCCC[C@H]2[C@H]1Cc1ccc(O)cc13 [Levallorphan] | 0.3 | 1 | 1.7 | – |
| COC(=O)[C@@H]1C[C@H](OC(C)=O)C(=O)[C@H]2[C@@]1(C)CC[C@H]1C(=O)O[C@H](c3ccoc3)C[C@]21C [Salvinorin A] | – | – | – | EC50 (KOR; read-out: EC50 at the KOR): […]; DMR agonist activity classification, KOR [3]: Full agonist; ligand DMR in PTX-pretreated cells [2]: detectable P-DMR; EC50 (MOR; read-out: EC50 at the MOR): […] |
| Deltorphin II | > 1000 | 3.3 | > 1000 | – |
| O=C(Cc1ccc(Cl)c(Cl)c1)N1CCCCC1CN1CCCC1 (stereo not drawn) [BRL-52537] | 0.24 | – | 1560 | DMR agonist activity classification, KOR [3]: Full agonist; DMR response at 9 min poststimulation [3]: 213±21 pm; saturable DMR amplitude, first phase of biphasic dose response [3]: 120±6 pm; saturable DMR amplitude, second phase of biphasic dose response [3]: 207±13 pm; EC50 [3, 6]: 0.0356 ± 0.0031 nM; EC50 [3, 7]: 26 ± 1.9 nM; ligand DMR in PTX-pretreated cells [2]: detectable P-DMR; IC50 [4]: 4.1 ± 0.23 nM |
| CC1(C)SSC(C)(C)[C@@H](NC(=O)[C@@H](N)Cc2ccc(O)cc2)C(=O)NCC(=O)N[C@@H](Cc2ccccc2)C(=O)N[C@H]1C(=O)O [DPDPE] | 12000 | – | 600 | – |
| DSLET | – | – | 120 | DMR agonist activity classification, MOR [5]: Full agonist |
| Dynorphin A (2–13) | 680 | – | – | – |
| Dynorphin A (1–13) | 0.98 | > 1000 | 31 | – |
| α-Neoendorphin (YGGFLRKYPK; Alpha-neoendorphin; UniProt P01213 175-184, looked up) [Kappa agonist] | 1.4 | 1.17 | – | DMR agonist activity classification, KOR [3]: Full agonist; ligand DMR in PTX-pretreated cells [2]: detectable P-DMR |
| Dynorphin A (1–8) (YGGFLRRI; Dynorphin A(1-8); UniProt P01213 207-214, looked up, fragment) | – | 32.6 | 22.3 | DMR agonist activity classification, MOR [5]: Full agonist |
| Oc1ccc2c3c1O[C@H]1c4oc5ccccc5c4C[C@@]4(O)[C@@H](C2)N(CC2CC2)CC[C@]314 [Naltriben] | > 10000 | 0.4 | 80.8 | blockage of the DAMGO response [1]: partial blockage |
| O=C1/C(=C/c2ccccc2)C[C@@]2(O)[C@H]3Cc4ccc(O)c5c4[C@@]2(CCN3CC2CC2)[C@H]1O5 [BNTX] | 55 | 0.66 | 18 | DMR agonist activity classification, KOR [3]: off-target; DMR agonist activity classification, MOR [5]: off-target |
| C[C@@H](NC(=O)[C@@H](N)Cc1ccc(O)cc1)C(=O)NCC(=O)N(C)[C@@H](Cc1ccccc1)C(=O)NCCO [DAMGO] | > 20000 | – | – | saturable DMR amplitude, first phase of biphasic dose response [3]: 139±6 pm; saturable DMR amplitude, second phase of biphasic dose response [3]: 200±8 pm; DMR agonist activity classification, MOR [5]: Full agonist; DMR response at 9 min poststimulation [5]: 240±17 pm |
| NC(=O)[C@H](Cc1ccccc1)NC(=O)[C@H](Cc1c[nH]c2ccccc12)NC(=O)[C@@H]1CCCN1C(=O)[C@@H](N)Cc1ccc(O)cc1 [Endomorphin-1] | – | > 500 | – | – |
| Oc1ccc2c3c1O[C@H]1c4[nH]c5ccccc5c4C[C@@]4(O)[C@@H](C2)N(CC2CC2)CC[C@]314 [Naltrindole] | – | – | – | blockage of the DAMGO response [1]: partial blockage |
| COc1ccc2c3c1O[C@H]1[C@@H](O)C=C[C@H]4[C@@H](C2)NCC[C@@]341 [(−)-Norcodeine] | – | – | 267 | – |
| DADLE | 1900 | 0.63 | 150 | – |
| DTLET | > 10000 | 22 | – | DMR agonist activity classification, MOR [5]: Full agonist |
| CN(C(=O)Cc1ccc(Cl)c(Cl)c1)C(CN1CCCC1)c1cccc(OCC(=O)O)c1 (stereo not drawn) [ICI 204,448] | 2.69 | > 1000 | > 1000 | – |
| C=CCN1CCC2(C)c3cc(O)ccc3CC1C2C (stereo not drawn) [SKF10047] | 1600 | 19000 | 1900 | – |
| Oc1ccc2c3c1O[C@H]1c4c(c5ccccc5n4Cc4ccccc4)C[C@@]4(O)[C@@H](C2)N(CC2CC2)CC[C@]314 [N-Benzylnaltrindole] | – | – | – | IC50 ratio at the KOR (KOR): 1.3; IC50 ratio at the DOR (DOR): 459; blockage of the DAMGO response [1]: partial blockage; IC50 ratio at the MOR (MOR): 11.2 |
| COC(=O)/C=C/C(=O)N[C@@H]1CC[C@@]2(O)[C@H]3Cc4ccc(O)c5c4[C@@]2(CCN3CC2CC2)[C@H]1O5 [β-Funaltrexamine] | 2.8 | 48 | 0.33 | – |
